Data published in BindingDB's records for PubMed 34889100 (University of Health Sciences and Pharmacy, 2021).

Biological target: Bile acid receptor NR1H4 (Homo sapiens) (UniProt Q96RI1)
Assay: Agonist activity at FXR in human HepG2 cells

Bile acid receptor NR1H4 (Homo sapiens), sequence (Q96RI1 whole entry, looked up): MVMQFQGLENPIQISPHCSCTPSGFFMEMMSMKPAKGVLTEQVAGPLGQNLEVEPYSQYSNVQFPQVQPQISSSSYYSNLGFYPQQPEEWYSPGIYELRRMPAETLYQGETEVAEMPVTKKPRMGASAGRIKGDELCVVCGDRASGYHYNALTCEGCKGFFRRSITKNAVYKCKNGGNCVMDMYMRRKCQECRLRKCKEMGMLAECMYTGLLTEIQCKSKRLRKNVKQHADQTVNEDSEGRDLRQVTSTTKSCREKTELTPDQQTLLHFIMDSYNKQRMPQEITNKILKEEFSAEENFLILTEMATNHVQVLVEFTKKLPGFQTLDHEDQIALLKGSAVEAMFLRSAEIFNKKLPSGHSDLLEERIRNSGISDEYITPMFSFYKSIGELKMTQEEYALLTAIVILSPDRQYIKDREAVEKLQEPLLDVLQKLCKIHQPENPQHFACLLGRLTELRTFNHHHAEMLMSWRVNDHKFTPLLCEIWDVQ

Row | EC50 | Compound
1 | 0.75 nM | O=C(O)c1ccc([C@@H]2C[C@H]2c2ccc(OCc3c(-c4c(Cl)cccc4Cl)noc3C3CC3)cc2Cl)cc1
2 | 0.35 nM | O=C(O)c1cc(F)c2nc(N3C[C@@H]4C[C@H]3C[C@H]4OCc3c(-c4ccccc4OC(F)(F)F)noc3C3CC3)sc2c1
